The values that follow come from ChEMBL document CHEMBL3774391, “Novel nicotine analogues with potential anti-mycobacterial activity” (Bioorg Med Chem, 2016).

Data set [1] relates to Mycobacterium tuberculosis. Description: Antimycobacterial activity against Mycobacterium tuberculosis clinical isolate assessed as growth inhibition after 28 days. It counts as functional, organism-based.
For data set [2], the system named is Mycobacterium tuberculosis. Description: Antimycobacterial activity against Mycobacterium tuberculosis H37Rv […] assessed as confluent growth at 200 ug/ml after 28 days by Lowenstein-Jensen method. It counts as functional, organism-based.
Data set [3] concerns Mycobacterium tuberculosis. Put plainly: Antimycobacterial activity against Mycobacterium tuberculosis H37Rv […] assessed as confluent growth at 50 ug/ml after 28 days by Lowenstein-Jensen method. It counts as functional, organism-based.
Data set [4] deals with Neuronal acetylcholine receptor; alpha4/beta2 (Homo sapiens) (UniProt P17787+P43681). Description: Displacement of [3H]cytisine from human recombinant alpha4beta2 nACh receptor expressed in human SH-SY5Y cells at 1 X 10^-8 M to 1 X 10^-7 M. In kind it is cell-based.
In data set [5] the test system is Mycobacterium tuberculosis. Description: Antimycobacterial activity against Mycobacterium tuberculosis clinical isolate assessed as growth inhibition after 5 days by microplate Alamar blue assay. It counts as functional. As to conditions: 120 h.
Data set [6] deals with Mycobacterium tuberculosis. Put plainly: Antimycobacterial activity against Mycobacterium tuberculosis H37Rv […] assessed as bacterial colonies at 200 ug/ml after 28 days by Lowenstein-Jensen method. It counts as functional.
Data set [7] relates to Mycobacterium tuberculosis. Put plainly: Antimycobacterial activity against Mycobacterium tuberculosis H37Rv […] assessed as bacterial colonies at 50 ug/ml after 28 days by Lowenstein-Jensen method. In kind it is functional.
The nature of data set [8]: Cmax in Wistar rat at 5 mg/kg, po. Further details: dose 5 mg/kg, route oral. As to conditions: in vivo. In kind it is ADME, organism-based.
Data set [9] in a line: Cmax in Wistar rat at 5 mg/kg, iv. It counts as ADME, organism-based. As to conditions: in vivo. Further details: dose 5 mg/kg, route intravenous.
For data set [10], the system named is Rattus norvegicus. Put plainly: Volume of distribution in Wistar rat at 5 mg/kg, po. In kind it is ADME, organism-based. The following applies: in vivo.
Data set [11] in a line: Tmax in Wistar rat at 5 mg/kg, iv. In kind it is ADME, organism-based. The following applies: in vivo.
Data set [12] is described as follows: Half life in Wistar rat at 5 mg/kg, po. In kind it is ADME, organism-based. As to conditions: in vivo.
Data set [13] can be described thus: Toxicity in Wistar rat administered qd via oral gavage with repeated dose for 28 days. In kind it is organism-based. The following applies: in vivo.
A short description of data set [14]: Volume of distribution in Wistar rat at 5 mg/kg, iv. As to conditions: in vivo. In kind it is ADME, organism-based.
A short description of data set [15]: Half life in Wistar rat at 5 mg/kg, iv. In kind it is ADME, organism-based. The following applies: in vivo.
Data set [16] in a line: Tmax in Wistar rat at 5 mg/kg, po. It counts as ADME, organism-based. The following applies: in vivo.
Data set [17] is described as follows: Acute toxicity in po dosed overnight fasted Wistar rat. In kind it is organism-based. As to conditions: in vivo.
Data set [18] concerns Mycobacterium tuberculosis. Description: Antimycobacterial activity against Mycobacterium tuberculosis H37Rv […] assessed as growth inhibition at 40 ug/ml after 28 days by Lowenstein-Jensen method. It counts as functional, organism-based.
Data set [19] has as its system Mycobacterium tuberculosis. Put plainly: Antimycobacterial activity against Mycobacterium tuberculosis H37Rv […] assessed as growth inhibition at 0.2 ug/ml after 28 days by Lowenstein-Jensen method. In kind it is functional, organism-based.
Data set [20] in a line: Half life in po dosed Wistar rat plasma.

By inhibition is commonly meant how much of the control response was suppressed. In general, MIC refers to the smallest concentration in the dilution series that meets the test's criterion for growth inhibition. By Cmax is commonly meant the peak of the concentration-time curve. Usually Tmax stands for the time from dosing to the highest level. As a reminder, the half-life is how long it takes for the measured level to halve. Higher therefore signals slow loss. In general, LD50 refers to the dose expected to kill half of the subjects tested.

≈ marks a conversion by molar mass, not a printed value. Calls of active or inactive are those of the source. Bounds are passed on as bounds.

For the compound `CN1CCC(C(=O)c2cncc(-c3cccc4ccccc34)c2)C1=O` (stereo not given), the outcome in data set [1] was inactive. For the same compound, the “growth inhibition (GI)” value in data set [2] and in data set [3] was “inactive” throughout.

For `CC(=O)c1ccc(-c2cncc(C(=O)C3CCN(C)C3=O)c2)s1` (stereo not given), the result in data set [1] was inactive. In addition, the inhibition entry in [4] is “inactive”. Further, the “growth inhibition (GI)” value in data set [2] and in [3] was “inactive” throughout.

Regarding `COc1ccccc1-c1cncc(C(=O)C2CCN(C)C2=O)c1` (stereo not given), the result in data set [1] was inactive. The “growth inhibition (GI)” value in [2] and in data set [3] was “inactive” each time.

`CN1CCC(C(=O)c2cncc(-c3ccc(Cl)c(Cl)c3)c2)C1=O` (stereo not given): the MIC in data set [5] was determined as 0.179 µM (≈ 62.5 ng/mL).

With `CN1CCC(C(=O)c2cncc(-c3cccc(N)c3)c2)C1=O` (stereo not given), the outcome in data set [1] was inactive. Also, the “growth inhibition (GI)” value in data set [2] and in data set [3] was “inactive” each time.

Regarding `Cc1ccc(-c2cncc(C(=O)C3CCN(C)C3=O)c2)cc1` (stereo not given), the outcome in [1] was inactive. Further, the “growth inhibition (GI)” value in data set [2] and in [3] was “inactive” throughout.

In the case of `CC(=O)c1cccc(-c2cncc(C(=O)C3CCN(C)C3=O)c2)c1` (stereo not given), in data set [1], the result was inactive. Moreover, the “growth inhibition (GI)” value in data set [3] was “inactive”. Also, the Activity in data set [6] is given as above 100.

For `CN1CCC(C(=O)c2cncc(-c3cccc([N+](=O)[O-])c3)c2)C1=O` (stereo not given), the result in data set [1] was inactive. In addition, in data set [4], the inhibition result was “inactive”. For the same compound, the “growth inhibition (GI)” value in data set [3] was “inactive”. Moreover, the Activity in data set [6] was above 100.

For the compound `Cc1cccc(-c2cncc(C(=O)C3CCN(C)C3=O)c2)c1` (stereo not given), the outcome in [1] was inactive. Also, the inhibition in data set [4] was below 10%. The Activity in data set [7] and in data set [6] was above 100 each time.

As for `CN1CCC(C(=O)c2cncc(-c3ccc(F)cc3)c2)C1=O` (stereo not given), the result in data set [1] was inactive. Besides, in data set [4], the inhibition result is “inactive”. For the same compound, the “growth inhibition (GI)” value in data set [2] and in [3] was “inactive” in each case.

As for `COc1cccc(-c2cncc(C(=O)C3CCN(C)C3=O)c2)c1` (stereo not given), the result in [1] was inactive. For the same compound, in [4], the inhibition entry was “inactive”. Also, the “growth inhibition (GI)” value in data set [2] and in data set [3] was “inactive” throughout.

For the compound `CN1CCC(C(=O)c2cncc(-c3ccc(C=O)cc3)c2)C1=O` (stereo not given), in data set [1], the outcome was inactive. Besides, the “growth inhibition (GI)” value in data set [3] was “inactive”. The Activity in [6] is above 100.

Consider `CN1CCC(C(=O)c2cncc(-c3cccc(O)c3)c2)C1=O` (stereo not given), for which the outcome in data set [1] was inactive. Besides, the inhibition entry in [4] was “inactive”. Moreover, the “growth inhibition (GI)” value in [2] and in [3] was “inactive” throughout.

Consider `CC(=O)Oc1ccc(-c2cncc(C(=O)C3CCN(C)C3=O)c2)cc1` (stereo not given), for which the result in data set [1] was inactive. Also, the inhibition entry in [4] was “inactive”. For the same compound, the Activity in [7] and in data set [6] was above 100 each time.

With `CN1CCC(C(=O)c2cncc(-c3ccccc3Cl)c2)C1=O` (stereo not given), the outcome in data set [1] was inactive. The “growth inhibition (GI)” value in [3] is “inactive”. Moreover, the Activity in [6] was above 100.

Take `CN1CCC(C(=O)c2cncc(-c3cc(Cl)cc(Cl)c3)c2)C1=O` (stereo not given): in data set [1], the result was inactive. The peak concentration (Cmax) in [8] was 2860 ng/mL; in [9], 3370 ng/mL. The values for the Vd in data set [10] and in [14] were 27.36 L and 23.2 L, respectively. The inhibition entry in [4] was “inactive”. For the same compound, the Tmax amounted to 3 min in data set [11] and 1 h in [16]. The half-life in data set [12] is above 1440 min; in [15] it was 1440 min. The same compound came in with a median lethal dose (LD50) at 672 h in data set [13] above 2000 mg/kg. For the same compound, the minimum inhibitory concentration (MIC) in data set [5] is 0.0286 µM (≈ 10 ng/mL). Also, the Activity in [7] and in [6] was above 100 in each case. In [17], this compound gave an LD50 above 2000 mg/kg.

For `CCCCc1cncc(C(=O)C2CCN(C)C2=O)c1` (stereo not given), in data set [1], the outcome was inactive. Besides, the inhibition entry in data set [4] was “inactive”. The “growth inhibition (GI)” value in [2] and in data set [3] was “inactive” throughout.

Regarding `CN1CCC(C(=O)c2cncc(-c3cccc(F)c3)c2)C1=O` (stereo not given), the outcome in data set [1] was inactive. Besides, the “growth inhibition (GI)” value in [2] and in [3] was “inactive” throughout.

In the case of `CO[C@H]1/C=C/O[C@@]2(C)Oc3c(C)c(O)c4c(O)c(c(/C=N/N5CCN(C)CC5)c(O)c4c3C2=O)NC(=O)/C(C)=C\C=C\[C@H](C)[C@H](O)[C@@H](C)[C@@H](O)[C@@H](C)[C@H](OC(C)=O)[C@@H]1C`, the “growth inhibition (GI)” value in data set [18] is “Active”.

For `CN1CCC(C(=O)c2cncc(-c3ccccc3)c2)C1=O` (stereo not given), the result in data set [1] was inactive. Besides, the inhibition in data set [4] is below 10%. In addition, the “growth inhibition (GI)” value in [2] and in data set [3] was “inactive” throughout.

With `CN1CCC(C(=O)c2cncc(-c3cccc(C=O)c3)c2)C1=O` (stereo not given), the outcome in data set [1] was inactive. Also, the inhibition entry in [4] is “inactive”. For the same compound, the “growth inhibition (GI)” value in [2] and in [3] was “inactive” throughout. The Activity in data set [6] is given as above 100.

On to `CN1CCC(C(=O)c2cncc(-c3ccc(Cl)cc3)c2)C1=O` (stereo not given), for which the result in [1] was inactive. Besides, the “growth inhibition (GI)” value in data set [2] and in [3] was “inactive” each time.

For the compound `CN1CCC(C(=O)c2cncc(-c3cc(Cl)ccc3Cl)c2)C1=O` (stereo not given), in data set [5], the MIC was 0.286 µM (≈ 100 ng/mL).

For `CN1CCC(C(=O)c2cncc(-c3cccc(Cl)c3Cl)c2)C1=O` (stereo not given), the minimal inhibitory concentration (MIC) in [5] amounted to 0.0093 µM (≈ 3.25 ng/mL).

`CN1CCC(C(=O)c2cncc(C3CC3)c2)C1=O` (stereo not given): the result in [1] was inactive. Besides, the inhibition entry in [4] is “inactive”. The “growth inhibition (GI)” value in data set [2] and in data set [3] was “inactive” throughout.

For `COc1ccc(-c2cncc(C(=O)C3CCN(C)C3=O)c2)cc1` (stereo not given), the result in data set [1] was inactive. Moreover, the inhibition entry in [4] was “inactive”. Besides, the “growth inhibition (GI)” value in data set [3] is “inactive”. Moreover, the Activity in [6] is given as above 100.

With `NNC(=O)c1ccncc1` [ISONIAZID], the minimum inhibitory concentration (MIC) in data set [5] came out at 0.00145 µM (≈ 0.199 ng/mL). Further, in data set [19], the “growth inhibition (GI)” value was “Active”.

For the compound `CN1CCC[C@H]1c1cccnc1` [NICOTINE], the half-life in data set [20] is 120 min.

Consider `CN1CCC(C(=O)c2cncc(-c3ccc4ccccc4c3)c2)C1=O` (stereo not given), for which the outcome in data set [1] was inactive. Moreover, in data set [3], the “growth inhibition (GI)” value was “inactive”. The Activity in data set [6] is reported as above 100.

Consider `CN1CCC(C(=O)c2cncc(-c3ccc(Cl)cc3Cl)c2)C1=O` (stereo not given), for which the MIC in [5] worked out at 0.00286 µM (≈ 0.999 ng/mL).

Consider `Cc1ccccc1-c1cncc(C(=O)C2CCN(C)C2=O)c1` (stereo not given), for which, in [1], the result was inactive. Moreover, the “growth inhibition (GI)” value in data set [2] and in [3] was “inactive” each time.
